Source: ChEMBL document CHEMBL5036381, “Novel Plasma Kallikrein Inhibitors for Treating Hereditary Angioedema, Diabetic Macular Edema, and Diabetic Retinopathy” (ACS Med Chem Lett, 2022)

Biological target: Plasma kallikrein (Homo sapiens, UniProt P03952)
Experiment: Inhibition of human plasma kallikrein using fluorogenic substrate measured by microplate reader analysis
Format: cell-free

Sequence of Plasma kallikrein (P03952 20-390 limits assumed): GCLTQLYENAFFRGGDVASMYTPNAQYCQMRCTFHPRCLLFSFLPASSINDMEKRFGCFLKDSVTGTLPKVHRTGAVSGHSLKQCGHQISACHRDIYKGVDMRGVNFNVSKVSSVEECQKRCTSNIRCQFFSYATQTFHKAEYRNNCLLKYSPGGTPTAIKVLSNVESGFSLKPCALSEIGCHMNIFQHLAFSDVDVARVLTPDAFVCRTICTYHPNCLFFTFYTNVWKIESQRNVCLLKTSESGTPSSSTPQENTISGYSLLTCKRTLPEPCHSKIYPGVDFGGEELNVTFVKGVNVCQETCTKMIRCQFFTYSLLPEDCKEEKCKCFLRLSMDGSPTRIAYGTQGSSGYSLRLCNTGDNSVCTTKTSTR
Sequence of Plasma kallikrein (P03952 391-638 limits assumed): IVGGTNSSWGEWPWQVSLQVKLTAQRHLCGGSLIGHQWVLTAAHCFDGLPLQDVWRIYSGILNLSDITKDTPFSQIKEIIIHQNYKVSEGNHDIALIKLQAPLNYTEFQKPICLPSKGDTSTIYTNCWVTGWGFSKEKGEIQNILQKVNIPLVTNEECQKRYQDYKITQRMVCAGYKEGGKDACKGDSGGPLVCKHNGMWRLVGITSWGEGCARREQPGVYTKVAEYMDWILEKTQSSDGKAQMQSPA

Compound	IC50 [pM]
COc1c(N2C[C@H]3C[C@H]3C2=O)ncc(C(C)n2cc(NC(=O)c3cncc(-c4c(C(F)F)ccc(Cl)c4F)n3)cn2)c1C (some centres not stated)	300
Cc1c([C@H](C)n2cc(NC(=O)c3cncc(-c4c(C(F)F)ccc(Cl)c4F)n3)cn2)cnc(N2C[C@H]3C[C@H]3C2=O)c1F	300
